# Measurements: patent US7884120B2, “2,4,5-trisubstituted imidazoles and their use as anti-microbial agents” (Lorus Therapeutics Inc., priority 2002, dated 2011)
# Where two headings read alike, the source gives them in different places.
# Assays:
# [1] = test system: Staphylococcus epidermidis (ATCC-35983); test: MIC by microdilution against Staphylococcus epidermidis; assay type: cell-based; conditions: unit not given in Table 4 (Table 3, same method: μg/ml)
# Procedure: (§1) A standard microdilution method (NCCLS, 2000; Document M7-A5) was used to determine the minimum inhibitory concentrations (MICs) against S. aureus, methicillin-resistant strains (MRSA); 1A-218, 1A-318, 1B-374, 1B-315, 1B-185, 1B387 (Simor et al. 1999 Can Commun Dis Rep; 25:105-108) and methicillin-sensitive strains (MSSA); ATCC-6538 and ATCC-29213. The MICs of some compounds were also determined against other Gram-positive bacteria: Enterococcus faecium (ATCC 51559), Enterococcus faecalis (ATCC-51299, ATCC-29212) and Staphylococcus epidermidis (ATCC-35983).
# (§2) Mueller-Hinton broth (MHB) is recommended as the medium of choice for susceptibility testing of commonly isolated, rapidly growing aerobic organisms such as the Gram-positive bacteria included in this study. A “cation-adjusted Mueller-Hinton broth” (Ca-MHB) was prepared by first preparing standard MHB from a dehydrated base as recommended by the manufacturer.
# (§3) Single colonies from fresh agar plates of the different bacterial cultures were sub-cultured overnight in 3 ml of Tryptic soy broth (TSB) at 37° C. with shaking at 250 RPM. After 18-20 hours of incubation, the absorbance at λ=600 nm (OD600) were determined for each culture and adjusted to a final OD600=0.1 (4.2×10^7 cfu/ml). Bacterial suspensions were then diluted 1:200 in sterile Ca-MHB for the in vitro susceptibility test, with each well of the microtitre plate containing approximately 2×10^5 cfu/ml.
# (§4) Stock solutions of the different test compounds were prepared at concentrations of 1,280 μg/ml, 640 μg/ml, or 320 μg/ml in 50% DMSO (dimethyl sulfoxide). Serial two-fold dilutions were then prepared in 50% DMSO (the working concentrations were 1:10 of the stock concentrations in 100 μl culture suspensions). The filled microtitre plates were sealed in plastic bags and incubated at 35° C. for 24 hr in an ambient air incubator with shaking at 250 RPM. MIC values were determined as the lowest concentration where complete inhibition of the visible bacterial growth was observed by the unaided eye and confirmed by the measurement of the optical density (OD600).
# [2] = test system: Methicillin-Resistant Staphylococcus aureus (MRSA), CMRSA-1B; test: MIC by sequential macrodilution (tube) broth method against MRSA; assay type: cell-based; set-up: key: (+): Positive visual bacterial growth; (−): Negative visual bacterial growth; conditions: 37° C. overnight
# Procedure: (Nat. Committee for Clinical Laboratory Standards. Document M7-A5 2000, 20; 1-25). Bacterial suspensions containing 5×10^5 colony-forming units (CFU) were incubated with serial two-fold dilutions of each drug at 37° C. overnight, and growth was monitored visually. The range of MIC values among the triaryl-imidazole derivatives was 12.5-50 μg/ml.
# [3] = test system: S. aureus, MRSA 1A-218, 1A-318, 1B-374, 1B-315, 1B-185, 1B387 and MSSA ATCC-6538, ATCC-29213; test: MIC by standard microdilution method against S. aureus (MRSA and MSSA strains); assay type: cell-based; conditions: Staphylococcus aureus
# Procedure: as §1, §2, §3, §4
# [4] = test system: Enterococcus faecium (ATCC-51559); test: MIC by microdilution against Enterococcus faecium; assay type: cell-based; conditions: unit not given in Table 4 (Table 3, same method: μg/ml)
# Procedure: as §1, §2, §3, §4
# [5] = test system: Enterococcus faecalis (ATCC-29212); test: MIC by microdilution against Enterococcus faecalis ATCC-29212; assay type: cell-based; conditions: unit not given in Table 4 (Table 3, same method: μg/ml)
# Procedure: as §1, §2, §3, §4
# [6] = test system: Enterococcus faecalis (ATCC-51299); test: MIC by microdilution against Enterococcus faecalis ATCC-51299; assay type: cell-based; conditions: unit not given in Table 4 (Table 3, same method: μg/ml)
# Procedure: as §1, §2, §3, §4
# [7] = assay type: in vivo; conditions: mice; injected 200 mg/kg per day
# Procedure: In vivo acute toxicity tests were conducted using compounds 1, 2, 3 and 4. Mice were injected with each of the above compounds at a concentration of 200 mg/kg per day.
# MRSA-1B387 = test: In vivo inhibition of MRSA, acute infection in immunosuppressed CB17-SCID mice; set-up: species or system Staphylococcus aureus; conditions: 5×10^6 MRSA-1B387 in 5% mucin, 50 mg/kg I.P. immediately and 3 hours after inoculation
# Procedure: Triaryl-imidazole compounds were tested in vivo for antibacterial activity against MRSA in a model of acute infection using immunosuppressed mice. Suspensions of 400 μL containing 5×10^6 MRSA-1B387 bacteria in 5% mucin were injected into groups of 5-10 female, 8-14 weeks CB17-SCID mice. Under these conditions bacterial infection produced 80-100% lethality in less than 48 hours. Each group of inoculated mice was treated with 50 mg/kg of the respective compound intraperitoneally (I.P.) immediately and 3 hours after bacterial inoculation.
# [8] = test system: multi-drug resistant Staphylococcus aureus (CMRSA-1B); test: Bactericidal effect against MRSA (CFU plating on TSA); assay type: cell-based; conditions: overnight with compound, plated on TSA, CFU count (FIG. 1)
# Procedure: Serial dilutions of liquid cultures were incubated with the compounds at 37° C. overnight and then plated on Tryptic Soy Agar (TSA) plates. After incubation for 17 hours at 37° C., the number of live bacteria was calculated from the number of colonies grown per milliliter of culture and expressed as colony-forming units (CFU).
# MRSA 1B-387 [9] = test: In vivo anti-bacterial activity, ICR mice inoculated I.P. with MRSA, oral treatment; conditions: Staphylococcus aureus
# Procedure: For in vivo studies, groups of 5-10 female ICR mice (6-7 weeks) were inoculated intraperitonially with 3-8×10^7 CFU MRSA 1B-387 per mouse in 400 μl of 5% mucin. The test compounds at concentrations of 50 or 100 mg/kg were administered orally immediately after the bacterial inoculation and again 3 hours later. The selected dosages were administered twice daily throughout the experiment. The efficacy of the treatment was evaluated by comparison of mortality between the experimental and control groups (Table 5).
# MRSA 1B-387 [10] = test: as above; conditions: Staphylococcus aureus; remark: listed apart in the source
# [11] = against all 8 strains of S. aureus tested except where indicated, microdilution, Ca-MHB, 35° C., 24 hr, read-out: MIC
smiles,measurement,setting,value
Cc1[nH]c2ccccc2c1-c1nc(-c2ccccc2)c(-c2ccccc2)[nH]1 [Compound 2],MIC,[1],16
same,visual bacterial growth,[2]; Conc. 3.12 μg/ml,+
same,visual bacterial growth,[2]; Conc. 6.25 μg/ml,+
same,visual bacterial growth,[2]; Conc. 12.50 μg/ml,−
same,visual bacterial growth,[2]; Conc. 25.00 μg/ml,−
same,visual bacterial growth,[2]; Conc. 50.00 μg/ml,−
same,visual bacterial growth,[2]; Conc. 100.00 μg/ml,−
same,MIC,[3]; [11],8 to 16 µg/mL
same,MIC,[4],16
same,MIC,[5],16
same,MIC,[6],16
same,"acute toxicity (symptoms of sickness, total weight, organ weight and appearance)",[7],no toxic effects
same,Survival (%),MRSA-1B387,80%
same,bactericidal or bacteriostatic effect at the corresponding MIC,[8],bactericidal effect
Cc1[nH]c2ccccc2c1-c1nc(-c2ccc(Cl)cc2)c(-c2ccc(Cl)cc2)[nH]1 [Compound 19],melting point,,165 to 167 °C
same,MIC,[1],4
same,MIC,[3]; [11],4 µg/mL
same,MIC,[4],8
same,MIC,[5],8
same,MIC,[6],8
Brc1ccc2[nH]cc(-c3nc(-c4ccc(-c5ccccc5)cc4)c(-c4ccc(-c5ccccc5)cc4)[nH]3)c2c1 [Compound 41],melting point,,155 to 158 °C
same,MIC,[3]; [11],> 128 µg/mL
Brc1ccc2[nH]cc(-c3nc4c5ccccc5c5ccccc5c4[nH]3)c2c1 [Compound 45],responders at 100 mg/kg,MRSA 1B-387 [9],10%
same,responders at 100 mg/kg,MRSA 1B-387 [9]; read-out: Survival %,20%
same,MIC,[3]; 24 h,0.5 µg/mL
same,responders at 200 mg/kg,MRSA 1B-387 [10],40%
same,responders at 200 mg/kg,MRSA 1B-387 [10]; read-out: Survival %,40%
